Measured values taken from patent publication US20060183909A1, “Compositions derived from quinoline and quinoxaline, preparation and use thereof” (priority 2001, published 2006).

System: xanthurenic acid receptor
Test: Screening: displacement of [3H]-XA binding to synaptic membranes at a fixed concentration
Settings: for % inhibition of XA binding at 10 μM*: xanthurenic acid set arbitrarily to 100%
Description: If this concentration produces the same or greater displacement than the same concentration of non-radiolabelled XA, then an IC50 is determined. […] The incubation time is 25 min. […] The filters are placed in scintillation vials to which 5 ml of Rotiszint® (Roth) are added and the vials are counted in a Beckman LS6000sc liquid scintillation counter. Specific binding is given as the difference between total binding and nonspecific binding. The percentage inhibition of binding that the synthetic compounds produce is calculated for each compound in relation to its positive control.

[1] = compound at 10 μM, 200 nM [3H]-XA, synaptic membranes

| SMILES | % inhibition of XA binding at 10 μM* [1] | also measured |
| --- | --- | --- |
| Cl.NCCCc1cc(O)c2nc(C(=O)O)cc(O)c2c1 [Compound 22c, 4,8-dihydroxy-6-(3-amino-propyl)-quinoline-2-carboxylic acid hydrochloride] | Potentiation | effect on xanthurenic acid binding, in words: increase the binding of xanthurenic acid; real increase in total binding (potentiation) [1]: (+100% real increase |
| O=C(O)c1cc(O)c2cc(CNCc3ccccc3)cc(O)c2n1 [Compound 26a, 4,8-dihydroxy-6-(benzylamino-methyl)-quinoline-2-carboxylic acid] | 0% | – |
| Cl.Nc1cc(N)c2nc(C(=O)O)cc(O)c2c1 [Compound 32d, 6,8-diamino-4-hydroxy-quinoline-2-carboxylic acid hydrochloride] | 117% | – |
| COC(=O)c1cc(O)c2cc(Nc3ccccc3)cc(N)c2n1 [Compound 33c, Methyl-6-(N-anilino)-8-amino-4-hydroxy-quinoline-2-carboxylate] | 97% | – |
| O=C(O)c1nc2c(OCc3ccccc3)cccc2c(O)c1CN1CCCC1 [Compound 40a, 3-(N-pyrrolidinomethyl)-8-benzyloxy-4-hydroxy-quinoline-2-carboxylic acid] | 83% | – |
| O=C(O)c1cc(O)c2ccc(CCc3ccccc3)c(O)c2n1 [Compound 55b, 4,8-dihydroxy-7-phenethyl-quinoline-2-carboxylic acid] | 103% | – |
| Cl.O=C(O)c1cc(O)c2cc(C3CCCCN3)cc(O)c2n1 (stereo not drawn) [Compound 61b, 4,8-dihydroxy-6-piperidin-2-yl-quinoline-2-carboxylic acid hydrochloride] | 97% | – |
| N#Cc1cc(Br)cc2c(O)cc(C(=O)O)nc12 [Compound 63c, 6-bromo-8-cyano-4-hydroxy-quinoline-2-carboxylic acid] | 46% | – |
| N#Cc1cc(-c2ccccc2)cc2c(O)cc(C(=O)O)nc12 [Compound 64b, 8-cyano-4-hydroxy-6-phenyl-quinoline-2-carboxylic acid] | 14% | – |
| N#Cc1cc(CCc2ccccc2)cc2c(O)cc(C(=O)O)nc12 [Compound 65d, 8-cyano-4-hydroxy-6-phenethyl-quinoline-2-carboxylic acid] | 18% | – |
| CCc1cc(C#N)c2nc(C(=O)O)cc(O)c2c1 [Compound 69d, 8-cyano-6-ethyl-4-hydroxy-quinoline-2-carboxylic acid] | 26% | – |
| Nc1ccc(-c2ccccc2)c2c(O)cc(C(=O)O)nc12 [Compound 73c, 5-phenyl-8-amino-4-hydroxy-quinoline-2-carboxylic acid] | 69% | – |
| Cl.Nc1ccc(N2CCCCC2)c2c(O)cc(C(=O)O)nc12 [Compound 77c, 5-(piperidin-1-yl)-8-amino-4-hydroxy-quinoline-2-carboxylic acid hydrochloride] | 6% | – |
| Cl.Nc1cccc2c(CCc3ccccc3)cc(C(=O)O)nc12 [Compound 94c, 8-amino-4-(2-phenyleth-1-yl)-quinoline-2-carboxylic acid hydrochloride] | 37% | – |
| Cl.NCCCc1cc(C(=O)O)nc2c(N)cccc12 [Compound 95c, 8-amino-4-(3-amino-prop-1-yl)-quinoline-2-carboxylic acid hydrochloride] | 57% | – |
| Cl.Nc1cccc2c(N3CCCCC3)cc(C(=O)O)nc12 [Compound 101c, 8-amino-4-(piperidin-1-yl)-quinoline-2-carboxylic acid hydrochloride] | 20% | – |
| Cl.O=C(O)c1cc(O)c2cccc(N3CCN(Cc4ccccc4)CC3)c2n1 [Compound 105b, 8-(4-benzyl-piperazin-1-yl)-4-hydroxy-quinoline-2-carboxylic acid hydrochloride] | 66% | – |
| CN(c1ccccc1)c1cccc2c(O)cc(C(=O)O)nc12.Cl [Compound 106b, 8-[phenyl(methyl)amino]-4-hydroxy-quinoline-2-carboxylic acid hydrochloride] | 29% | – |

More lines, main results first:

| % inhibition of XA binding at 10 μM* [1] | SMILES | also measured |
| --- | --- | --- |
| 0% | CC(=O)Nc1cccc2c(O)cc(C(=O)O)nc12 [Compound 28a, 8-acetylamino-4-hydroxy-quinoline-2-carboxylic acid] | – |
| 0% | CC(C)(C)C(=O)Nc1cccc2c(O)cc(C(=O)O)nc12 [Compound 28b, 8-pivaloylamino-4-hydroxy-quinoline-2-carboxylic acid] | – |
| 48.5% | O=C(Nc1cccc2c(O)cc(C(=O)O)nc12)c1ccccc1 [Compound 28c, 8-benzoylamino-4-hydroxy-quinoline-2-carboxylic acid] | – |
| 94% | O=C(O)c1cc(O)c2cccc(F)c2n1 [Compound 36c, 8-fluoro-4-hydroxy-quinoline-2-carboxylic acid] | – |
| 77% | NC(=O)c1cccc2c(O)cc(C(=O)O)nc12 [Compound 37c, 8-carboxamide-4-hydroxy-quinoline-2-carboxylate acid] | – |
| 72% | CNc1cc(C(=O)O)nc2c(N)cccc12.Cl [Compound 38d, 4-(N-methylamino)-8-amino-quinoline-2-carboxylic acid hydrochloride] | – |
| 77% | O=C(O)c1nc2c(O)cccc2c(O)c1CN1CCOCC1 [Compound 39b, 3-(N-morpholinomethyl)-4,8-dihydroxy-quinoline-2-carboxylic acid] | – |
| 43% | CN(C)c1cccc2c(O)cc(C(=O)O)nc12 [Compound 41d, 8-dimethylamino-4-hydroxy-quinoline-2-carboxylic acid] | – |
| 143% | O=C(O)c1nc2c(O)cccc2c(O)c1Br [Compound 52c, 3-bromo-4,8-dihydroxy-quinoline-2-carboxylic acid] | – |
| 112% | O=C(O)c1nc2c(O)c(Br)ccc2c(O)c1Br [Compound 56c, 3,7-dibromo-4,8-dihydroxy-quinoline-2-carboxylic acid] | – |
| 97% | O=C(O)c1nc2c(O)cccc2[nH]c1=O [Compound 59c, 8-hydroxy-3-oxo-3,4-dihydroquinoxaline-2-carboxylic acid] | – |
| 69% | O=C(O)CC1Nc2c(O)cccc2NC1=O (stereo not drawn) [Compound 60c, [8-(hydroxy)-3-oxo-3,4-dihydroquinoxaline-2(1H)-yl]acetic acid] | – |
| 94% | Cl.O=C(O)c1cc(O)c2cccc(-c3nn[nH]n3)c2n1 [Compound 62b, 4-hydroxy-8-(2H-tetrazol-5-yl)-quinoline-2-carboxylic acid hydrochloride] | – |
| 69% | N#Cc1cccc2c(O)c(Br)c(C(=O)O)nc12 [Compound 66b, 3-bromo-8-cyano-4-hydroxy-quinoline-2-carboxylic acid] | – |
| 0% | N#Cc1cccc2c(O)c(C#Cc3ccccc3)c(C(=O)O)nc12 [Compound 67c, 8-cyano-4-hydroxy-3-phenylethynyl-quinoline-2-carboxylic acid] | – |
| 31% | Nc1ccc(CCCO)c2c(O)cc(C(=O)O)nc12 [Compound 75c, 5-hydroxypropyl-8-amino-4-hydroxy quinoline-2-carboxylic acid] | – |
| 60% | Nc1cc(O)cc2c(O)cc(C(=O)O)nc12 [Compound 79d, 6-hydroxy-8-amino-4-hydroxy-quinoline-2-carboxylic acid] | – |
| 183% | Cl.O=C(O)c1cc(N2CCNCC2)c2cccc(O)c2n1 [Compound 87c, 8-hydroxy-4-(piperazin-1-yl)-quinoline-2-carboxylic acid hydrochloride] | – |
| 17% | Cl.Nc1cccc2c(CCCO)cc(C(=O)O)nc12 [Compound 96c, 8-amino-4-(3-hydroxy-prop-1-yl)-quinoline-2-carboxylic acid hydrochloride] | – |
| 94% | O=C(O)c1cc(O)c2c(C(F)(F)F)ccc(O)c2n1 [Compound 98c, 4,8-dihydroxy-5-trifluoromethyl-quinoline-2-carboxylic acid] | – |
| 220% | Cl.O=C(O)c1cc(N2CCOCC2)c2cccc(O)c2n1 [Compound 99c, 8-hydroxy-4-(morpholin-1-yl)-quinoline-2-carboxylic acid hydrochloride] | – |
| 137% | Cl.O=C(O)c1cc(N2CCCCC2)c2cccc(O)c2n1 [Compound 100c, 8-hydroxy-4-(piperidin-1-yl)-quinoline-2-carboxylic acid hydrochloride] | – |
| 92% | Cl.O=C(O)c1cc(O)c2cccc(N3CCCCC3)c2n1 [Compound 102b, 4-hydroxy-8-(piperidin-1-yl)-quinoline-2-carboxylic acid hydrochloride] | – |
| 3% | CNc1cccc2c(O)cc(C(=O)O)nc12.Cl [Compound 103b, 4-hydroxy-8-(methyl)amino-quinoline-2-carboxylic acid hydrochloride] | – |
| 40% | Cl.O=C(O)c1cc(O)c2cccc(N3CCOCC3)c2n1 [Compound 104b, 4-hydroxy-8-(morpholin-1-yl)-quinoline-2-carboxylic acid hydrochloride] | – |
